According to paper PMC2923755, “Thermolability of mutant MMACHC protein in the vitamin B12-responsive cblC disorder” (Molecular Genetics and Metabolism, 2010):
Where a chain is given by its changes, count along the chain named. Where “and” joins values, the source holds several entries; their conditions need not be identical. Equal entries are not always repeated. Entries after “also recorded” stand apart in the source; their conditions may differ.

What was measured:
GST-MMACHC-wt [1] = molecular target: T1, GST-MMACHC-wt (Homo sapiens, UniProt Q9Y4U1); assay: UV-visible absorption spectra, base-on/base-off binding; details: 5 μM cobalamin, 50 μM protein, pH 7.0; for α/β-Peak: nm; for γ-Peak: wavelength
T1 construct: made in house
T1 sequence (Q9Y4U1 1-282): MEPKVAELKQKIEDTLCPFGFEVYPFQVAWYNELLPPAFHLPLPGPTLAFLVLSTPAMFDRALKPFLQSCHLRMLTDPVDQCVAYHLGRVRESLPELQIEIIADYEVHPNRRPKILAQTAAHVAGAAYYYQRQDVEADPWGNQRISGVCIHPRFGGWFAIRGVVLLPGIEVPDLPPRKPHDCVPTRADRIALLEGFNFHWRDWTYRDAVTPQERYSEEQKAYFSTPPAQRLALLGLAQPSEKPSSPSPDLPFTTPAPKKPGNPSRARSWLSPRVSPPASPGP
Procedure: (§1) To determine base-on or base-off binding, 5 μM of the appropriate cobalamin or cobinamde in buffer (100 mM Tris, pH 7.0), was incubated in the dark with 400 μl total of 50 μM MMACHC protein (wild-type or R161Q), prepared in the same buffer, or alone, for 5 min at room temperature. In order to retain the high amounts of protein necessary for these experiments, the His-tag (wt and R161Q) or GST-tag (wt protein) was left on. Absorption spectrum measurements were carried out using a MOS-250 spectrometer and recorded using Bio-Kine 32 v4.20 software.
(§2) In order to determine whether the R161Q mutation interferes with the ability of MMACHC to support this transition, we examined the UV–visible absorption spectra for the proteins bound to AdoCbl, as an example of an alkylcobalamin, as well as for the proteins bound to CNCbl and OHCbl. Each cobalamin was added at a concentration of […] (Fig. 5). To determine whether the cobalamin was base-on or base-off, in the case of CNCbl both base-on and base-off spectra were determined for the free vitamin, as previously reported [[12,14]]. […] Confirming our earlier data, GST-tagged MMACHC-wt bound CNCbl in the base-off state (Table 2). […] Both MMACHC-wt and MMACHC-R161Q bound AdoCbl in the base-off state (Fig. 5; Table 2). […] Finally, neither MMACHC-wt nor MMACHC-R161Q modified OHCbl binding, which retained the base-on profile regardless of the MMACHC species present (Fig. 5; Table 2).

His-MMACHC-wt = molecular target: T2, His-MMACHC-wt (Homo sapiens, UniProt Q9Y4U1); assay: as above; details: 5 μM cobalamin, 50 μM protein, pH 7.0; for α/β-Peak: nm; for γ-Peak: wavelength
T2 construct: made in house; host or cells: E. coli BL21 DE3
T2 sequence (Q9Y4U1 1-282): T1 sequence (Q9Y4U1 1-282)
Procedure: as §1, §2

His-MMACHC-R161Q [2] = molecular target: T3, His-MMACHC-R161Q (Homo sapiens, UniProt Q9Y4U1, R161Q); assay: as above; details: 20 μM CNCbl, pH 7.0
T3 construct: made in house; host or cells: E. coli BL21 DE3
T3 sequence (Q9Y4U1 1-282 R161Q): T1 sequence (Q9Y4U1 1-282) with R161Q

[3] = UV-visible absorption spectra of free cobalamin; assay type: physicochemical; details: for α/β-Peak: nm; for γ-Peak: wavelength
Procedure: as §1, §2

His-MMACHC-R161Q [4] = molecular target: T3, His-MMACHC-R161Q; assay: UV-visible absorption spectra, base-on/base-off binding; details: 5 μM cobalamin, 50 μM protein, pH 7.0; for α/β-Peak: nm; for γ-Peak: wavelength
Procedure: […] In order to retain the high amounts of protein necessary for these experiments, the His-tag (wt and R161Q) or GST-tag (wt protein) was left on. Absorption spectrum measurements were carried out using a MOS-250 spectrometer and recorded using Bio-Kine 32 v4.20 software.
as §2

MMACHC-G147D = system: MMACHC-G147D; design: method as in PMID 19700356; details: recombinant protein, in words; cited from earlier work
MMACHC-R161Q [5] = molecular target: T4, MMACHC-R161Q (Homo sapiens, UniProt Q9Y4U1, R161Q); design: method as in PMID 19700356; details: cited from earlier work; for cobalamin binding: recombinant protein, in words
T4 construct: His-tag (N, cleaved yes); made in house; host or cells: E. coli BL21 DE3
T4 sequence (Q9Y4U1 1-282 R161Q): T1 sequence (Q9Y4U1 1-282) with R161Q

MMACHC-R161Q [6] = molecular target: T4, MMACHC-R161Q; assay: Differential scanning fluorimetry (DSF), stabilization by cobalamins; assay type: binding; details: DSF; for ΔTm max: Tm at 50 μM ligand minus Tm at 0 μM ligand
Procedure: (§3) DSF was performed and analyzed as described in Niesen et al., with minor modifications. Purified MMACHC proteins were diluted to 0.1 mg/ml (3 μM) in buffer (10 mM HEPES pH 7.5, 0.5 M NaCl, 5% glycerol) with 1:1000 Sypro Orange (Invitrogen) and run in triplicate. The proteins were heated from 5 to 75 °C with a ramp rate of 1 °C/min in a thermocycler (Bio-rad C1000 Thermocycler, CFX96 Real-time system). All graphs were normalized so that minimum fluorescence was set to 0 and maximum fluorescence set to 1. […] Final graphs and AC50’s were generated using Kadeidagraph 4.0 software (Synergy Software, Reading, PA). AC50’s were determined by fitting the ΔTm vs. ligand concentration curves to the equation ΔTm = ΔTm max[S]/(AC50 + [S]) where ΔTm is the change in melting temperature (Tm[protein + ligand] − Tm[protein]), ΔTm max is the maximal change in Tm at saturating (50 μM) ligand concentration and [S] is the ligand concentration.
(§4) Wild-type (MMACHC-wt) and mutant (MMACHC-R161Q) MMACHC were expressed and purified to >95% purity, with His-tag removed, as judged by SDS–PAGE (Fig. 2A). In order to investigate the thermostability of MMACHC we used DSF, a method that measures protein stability and ligand-induced changes in stability [[20,21]]. DSF uses an environmentally sensitive dye, such as Sypro orange, to monitor protein-unfolding caused by heat denaturation. As the protein unfolds, the dye, which has a higher fluorescence quantum yield in nonpolar environments than in aqueous media, binds to hydrophobic regions of the protein, causing a large increase in fluorescence [[22,23]]. Protein stability is expressed as the melting point of the protein (Tm), that is, the transition midpoint of the fluorescence curve, corresponding to the temperature at which half of the protein molecules are folded and half are unfolded. […] Even lower was the stability of MMACHC-R161Q (Tm = 37.1 ± 0.7 °C) (Fig. 2B). The difference in Tm was small but nonetheless significant (p < 0.01). A second difference between the wild-type and mutant proteins was the shape of the unfolding curves, with the unfolding of the mutant protein showing high cooperativity indicating a two-state unfolding mechanism while the unfolding of the wild-type protein stretched over a larger temperature range and comprised two phases (Fig. 2B; also Fig. 3A at 0 μM OHCbl).

MMACHC-wt [7] = molecular target: T5, MMACHC-wt (Homo sapiens, UniProt Q9Y4U1); assay: as above; assay type: binding; details: for ΔTm max: Tm at 50 μM ligand minus Tm at 0 μM ligand
T5 construct: His-tag (N, cleaved yes); made in house; host or cells: E. coli BL21 DE3
T5 sequence (Q9Y4U1 1-282): T1 sequence (Q9Y4U1 1-282)
Procedure: as §3, §4

GST-MMACHC-wt [8] = molecular target: T1, GST-MMACHC-wt; design: method as in PMID 19700356; details: earlier demonstration; cited from earlier work
MMACHC-wt [9] = molecular target: T5, MMACHC-wt; design: method as in PMID 19700356; details: published Kd; unit printed in b1 only; cited from earlier work
[10] = half-maximal effective ligand concentration for stabilization, 3 μM protein, fit of ΔTm vs ligand concentration

Compound | Base-on/off (GST-MMACHC-wt [1]) | α/β-Peak (GST-MMACHC-wt [1]) [nm] | γ-Peak (GST-MMACHC-wt [1]) | Base-on/off (His-MMACHC-wt) | α/β-Peak (His-MMACHC-wt) [nm] | γ-Peak (His-MMACHC-wt) | α/β-Peak ([3]; base-on) [nm] | γ-Peak ([3]; base-on) [nm] | Base-on/off (His-MMACHC-R161Q [4]) | α/β-Peak (His-MMACHC-R161Q [4]) [nm] | γ-Peak (His-MMACHC-R161Q [4]) | cobalamin binding (MMACHC-G147D) | cobalamin binding (MMACHC-R161Q [5]) | ΔTm max (MMACHC-R161Q [6]) | ΔTm max (MMACHC-wt [7]) | further results
Cyanocobalamin [CNCbl] | base-off and Off | 530 | 357 | Off | 531 | 358 | 551 | 360 | shifted incompletely towards full base-off binding; also recorded: On/Off | 540 | 359 | unable to bind | poorly; also recorded: impaired | 1 °C and 1.1 ± 0.6 °C | 3.4 ± 0.6 °C | Base-on/off (His-MMACHC-R161Q [2]): Off; α/β-Peak (His-MMACHC-R161Q [2]; nm): 531 nm; γ-Peak (His-MMACHC-R161Q [2]; wavelength): 359; α/β-Peak ([3]; base-off): 529 nm; γ-Peak ([3]; base-off): 355 nm; Kd (MMACHC-R161Q [5]; published Kd, unit printed in b35 only): 20 µM; binding conformation (base-on/off) (GST-MMACHC-wt [8]): base-off
C/C1=C2/[N-][C@H]([C@H](CC(N)=O)[C@@]2(C)CCC(=O)NC[C@@H](C)OP(=O)([O-])O[C@H]2[C@@H](O)[C@@H](n3cnc4cc(C)c(C)cc43)O[C@@H]2CO)[C@]2(C)N=C(/C(C)=C3N=C(/C=C4N=C1[C@@H](CCC(N)=O)C\4(C)C)[C@@H](CCC(N)=O)[C@]\3(C)CC(N)=O)[C@@H](CCC(N)=O)[C@]2(C)CC(N)=O.[Co+3].[OH-] [OHCbl, Hydroxocobalamin] | On | 522 | 355 | base-on and On | 532 | 356 | 525 | 350 | base-on and On | 535 | 354 | unable to bind | wild-type affinity | 4 °C and 3.7 ± 0.1 °C | 8 °C and 7.9 ± 0.6 °C | Kd (MMACHC-wt [9]): 6 µM and 5.7 µM; AC50 (MMACHC-R161Q [6]; [10]): 7 µM and 6.6 µM; AC50 (MMACHC-wt [7]; [10]): 3 µM
